The record followed here is patent US20060110474A1, “Rubrofusarin glycoside-containing composition” (Suntory Limited, priority 2002, published 2006).

Holding throughout (type): cell-based
Series [1] concerns human hepatoma HepG2 cells. In words: Cytotoxicity seen in the in-vitro HepG2 cell evaluation system. The following applies: HepG2, 48 hours, up to 20 μM, compared with β-naphthoflavone. How it is done: Using human hepatoma HepG2 cells, time-dependent induction effect of rubrofusarin glycoside upon intracellular glutathione level was investigated. The procedure was similar to that of Example 1. Briefly, HepG2 cells were dispensed at a density of 2.5×10^4 cells (100 μl) per well of a microplate and allowed to settle thereto, and then, 25 μl of an evaluation sample diluted to a predetermined concentration in RPMI1640 medium was added. The cells were cultured for 0, 6, 12, 24, and 48 hours. As the evaluation sample, use was made of the concentrate (containing 10.2% (w/w) rubrofusarin gentiobioside) of the present invention prepared in accordance with the method shown in Example 4. […]
(§1) Using human hepatoma HepG2 cells, dose dependency of the effect of rubrofusarin glycoside upon intracellular glutathione level was investigated. […] After culturing for an additional 48 hours, the intracellular glutathione level was measured to be compared with that of the cells containing no test-compound or that of the cells containing comparative compound, β-naphthoflavone (purchased from Nacalai-tesque) or silibinin (purchased from Sigma Chemical). […]

Series [2] deals with human hepatoma HepG2 cells. In words: Protective effect against t-butyl hydroperoxide (rate of surviving cells, WST-1 staining). Conditions: HepG2, 10 μM in terms of rubrofusarin gentiobioside for 48 hours, then t-BHP 0 to 1 mM for 3 hours; β-naphthoflavone 6 μM; FIG. 3. How it is done: The method was similar to that in Example 5. Briefly, HepG2 cells were dispensed at a density of 2.5×10^4 cells (100 μl) per well of a microplate and allowed to settle thereto, and then, 25 μl of the concentrate diluted in RPMI1640 medium to a final concentration of 10 μM in terms of rubrofusarin gentiobioside was added. After culturing was performed for a further 48 hours, a peroxide, t-butyl hydroperoxide (t-BHP) was added so as to give a final concentration of 0 to 1 mM. The rate of surviving cells after 3 hours relative to that of the cells containing no test compound was compared with those containing comparative compounds, β-naphthoflavone (6 μM) and silibinin (10 μM). The rate of surviving cells was checked by WST-1 staining and calculated based on a control not containing t-BHP as being 100%.
(Tetrazolium assays rely on reduction of a dye to a coloured formazan, in cell work by metabolically active cells.)

Series [3] deals with human hepatoma HepG2 cells. In words: Intracellular glutathione level of HepG2 cells (monochlorobimane fluorescence). As to the method: (§2) The activity to increase intracellular glutathione level was determined by use of human hepatoma HepG2 cells. More specifically, HepG2 cells were cultured in RPMI1640 medium and added to a 96-well microplate at a density of 2.5×10^4 cells (100 μl) per well. After the HepG2 cells settled on the wall, 25 μl of each of the aforementioned samples was added and the mixture was cultured in a CO2 incubator for 48 hours. Thereafter, a culture solution was removed and the cells were washed once with phosphate buffered saline (PBS), 25 μl of a PBS solution containing 0.25 mM monochlorobimane was added and the mixture was allowed to stand in the CO2 incubator (37° C.) for 45 minutes. After the mixture was returned to room temperature, 75 μl of distilled water was added to the mixture to disperse it. The fluorescent intensity of the fluorescent substance produced by the reaction between Monochlorobimane and glutathione was measured at 355 nm/460 nm to observe a change in intracellular glutathione content.
Using human hepatoma HepG2 cells, time-dependent induction effect of rubrofusarin glycoside upon intracellular glutathione level was investigated. The procedure was similar to that of Example 1. Briefly, HepG2 cells were dispensed at a density of 2.5×10^4 cells (100 μl) per well of a microplate and allowed to settle thereto, and then, 25 μl of an evaluation sample diluted to a predetermined concentration in RPMI1640 medium was added. The cells were cultured for 0, 6, 12, 24, and 48 hours. […]
as §1

Series [4] deals with human hepatoma HepG2 cells. In words: Synergistic effect with precursor L-cystine on intracellular glutathione level (L-cystine free D-MEM). The following applies: 40 hours, FIG. 4. How it is done: as §2
Using human hepatoma HepG2 cells, the synergistic effect between rubrofusarin glycoside having the intracellular glutathione increasing activity and a precursor for synthesizing glutathione in vivo was investigated. […] Thereafter, intracellular glutathione levels were measured. […]

Molecules are shown by their SMILES. Entries after “also recorded” stand apart in the source; their conditions may differ.

Take `COc1cc(O[C@@H]2O[C@H](CO[C@@H]3O[C@H](CO)[C@@H](O)[C@H](O)[C@H]3O)[C@@H](O)[C@H](O)[C@H]2O)c2c(O)c3c(=O)cc(C)oc3cc2c1` [rubrofusarin glycoside, rubrofusarin 6-O-β-gentiobioside]: in series [1], the “cytotoxicity in a high-concentration range” value is “lower”. In addition, the “protective effect against t-BHP (rate of surviving cells)” value in series [2] is on record as “protecting HepG2 cells; also recorded: somewhat lower than that of β-naphthoflavone”. Also, in series [3] (HepG2, 48 hours culture, serial two-fold dilution, 4 dilution stages), the “activity to increase intracellular glutathione level (HPLC fraction)” value was “dose dependent and strong”. Also, in series [3] (HepG2, 48 hours, final concentration 0 to 20 μM in terms of rubrofusarin gentiobioside, FIG. 2), the “glutathione increasing activity, dose dependency” value is “increases in a dose-dependent manner; also recorded: equivalent to that of β-naphthoflavone”. The “intracellular glutathione level, time course” value in series [3] (HepG2, 0, 6, 12, 24, 48 hours, 1.25, 2.5, 5.0 μM in terms of rubrofusarin gentiobioside, relative to negative control = 100%, FIG. 1) was “increases in a time-dependent manner”. Further, the “intracellular glutathione level in co-existence of L-cystine” value in series [4] (10 μM rubrofusarin glycoside plus L-cystine) was “synergistically contribute to an increase; also recorded: acted synergistically”.
In the case of `N[C@@H](CSSC[C@H](N)C(=O)O)C(=O)O` [L-cystine], the “intracellular glutathione level with L-cystine alone” value in series [4] (L-cystine at predetermined concentrations) is on record as “increased as the concentration of L-cystine added increased”.
